This note sets out measurements from patent US9918916B2, “Active ingredient comprising a mixture of unsaturated dicarboxylic fatty acids, compositions comprising said ingredient and cosmetic or dermatological uses” (SEDERMA, priority 2014, dated 2018).

Common to all, as to type: cell-based
The subject of one assay is G3PDH. As to the kind of experiment: G3PDH activity on human adipocytes. Conditions: 10 μm. The method, then: In this perspective, in vitro tests aiming to show an increase in adipocyte differentiation (with glycerol-3-phosphate dehydrogenase or G3PDH as the key enzyme of this differentiation) on pre-adipocyte cultures were implemented. Other in vitro assays seek to show slower lipolysis on adipocyte cultures to validate the effectiveness of these compounds. Human pre-adipocytes are seeded and induced to differentiate with a specific mixture of inducers (without indomethacine*) in the presence or absence (negative control) of the products to be tested. After 10 days, the cultures are stopped and the residual […] activity is measured by spectrophotometry on a cellular lysate. […] Results

A further assay concerns hyaluronic acid. Nature of the assay: Synthesis of hyaluronic acid by human keratinocytes. The note with it: 1 μm. How it is done:
Human keratinocytes are cultured for 24 h. The cells are contacted with the products to be tested or their excipient for 3 days. The culture supernatants are recovered and a dosage of the amount of hyaluronic acid is achieved. Retinoic acid is used as a positive control. Quantification of cells present on the layer is carried out with the DNA dye (Hoechst 33258), so as to adjust the dosages to the number of cells.

In the next assay the test system is normal human melanocytes. As to the kind of experiment: Inhibition of melanin synthesis on human melanocytes. The note with it: 0.01%. How it is done: Normal human melanocytes are cultured in their maintenance medium and then contacted with the products to be tested in the test medium for 10 days. After the contact, melanins are extracted from the cells and assayed by spectrophotometry (490 nm). An estimate of cell number is performed after cultivation using a protein assay by the BCA method. Melanin concentrations are normalized by the sample protein content.

For `CCc1ccc(CCOc2ccc(CC3SC(=O)NC3=O)cc2)nc1` (stereo not drawn) [Pioglytazone], the “stimulation of G3PDH activity vs. control (positive control)” value with G3PDH is “+712%”.
With `CC1=C(/C=C/C(C)=C/C=C/C(C)=C/C(=O)O)C(C)(C)CCC1` [Retinoic Acid], in the assay with hyaluronic acid, the “stimulation of hyaluronic acid synthesis vs. control (positive control)” value is given as “+106%”.
In the case of `OC[C@H]1O[C@@H](Oc2ccc(O)cc2)[C@H](O)[C@@H](O)[C@@H]1O` [arbutine], the “inhibition compared to the control (melanin, positive reference)” value in the assay on normal human melanocytes is on record as 33%.
